One series in a line: Solubility test in water (HPLC). Conditions: stirred at constant temperature for 30 min. In kind it is physicochemical. The protocol: The solubility of the salt of the compound of Formula (I) of the present invention was determined by the following method:
a) About 200 mg of the salt of the compound of Formula (I) was accurately weighed, dissolved in 200 ml of an aqueous solution, stirred at a constant temperature for 30 min, and allowed to stand. The supernatant was centrifuged, and then the supernatant of the centrifugate was taken and used as a test solution.
b) About 200 mg of the compound of Formula (I) was accurately weighed, dissolved in aqueous methanol, and quantitatively diluted into a solution containing 0.02 mg of free base per 1 ml.
The solution was used as a reference solution.
The table below compares the solubilities of the compound of Formula (I) and its various forms of salts.
`O=C(c1cc(Cc2n[nH]c(=O)c3ccccc23)ccc1F)N1CCN(c2ccc3[nH]cnc3n2)CC1.O=S(=O)(O)c1ccccc1` [4-(3-(4-(1H-imidazo[4,5-b]pyridine-5-yl)piperazine-1-carbonyl)-4-fluorobenzyl)phthalazine-1(dihydro)-one benzenesulfonate] yielded a Solubility in water of 230 µg/mL.
In the case of `Cl.O=C(c1cc(Cc2n[nH]c(=O)c3ccccc23)ccc1F)N1CCN(c2ccc3[nH]cnc3n2)CC1` [4-(3-(4-(1H-imidazo[4,5-b]pyridine-5-yl)piperazine-1-carbonyl)-4-fluorobenzyl)phthalazine-1(dihydro)-one hydrochloride], the Solubility in water was found to be 340 µg/mL.
Molecule `O=C(c1cc(Cc2n[nH]c(=O)c3ccccc23)ccc1F)N1CCN(c2ccc3[nH]cnc3n2)CC1.O=S(=O)(O)CCO` [4-(3-(4-(1H-imidazo[4,5-b]pyridine-5-yl)piperazine-1-carbonyl)-4-fluorobenzyl)phthalazine-1(dihydro)-one hydroxyethanesulfonate] gave a Solubility in water of 310 µg/mL.
`Cc1ccc(S(=O)(=O)O)cc1.O=C(c1cc(Cc2n[nH]c(=O)c3ccccc23)ccc1F)N1CCN(c2ccc3[nH]cnc3n2)CC1` [4-(3-(4-(1H-imidazo[4,5-b]pyridine-5-yl)piperazine-1-carbonyl)-4-fluorobenzyl)phthalazine-1(dihydro)-one p-toluenesulfonate] showed a Solubility in water of 40 µg/mL.
In turn, `CS(=O)(=O)O.O=C(c1cc(Cc2n[nH]c(=O)c3ccccc23)ccc1F)N1CCN(c2ccc3[nH]cnc3n2)CC1` [4-(3-(4-(1H-imidazo[4,5-b]pyridine-5-yl)piperazine-1-carbonyl)-4-fluorobenzyl)phthalazine-1(dihydro)-onemethanesulfonate] came in with a Solubility in water of 300 µg/mL.

Staying with this series, now noted: thermodynamic from solid, stirred at constant temperature for 30 min.
In turn, `O=C(c1cc(Cc2n[nH]c(=O)c3ccccc23)ccc1F)N1CCN(c2ccc3[nH]cnc3n2)CC1` [Formula I, 4-(3-(4-(1H-imidazo[4,5-b]pyridine-5-yl)piperazine-1-carbonyl)-4-fluorobenzyl)phthalazine-1(dihydro)-one] displayed a solubility at 30 min of 1 µg/mL.

A word on the solubility: it is the concentration that dissolves in the medium under given conditions. Low values mean a poorly soluble substance, high ones a readily soluble substance.

The values above are taken from patent US10874667B2, “Pharmaceutical salt of antitumor heterocyclic imidazole compound” (SHANGHAI HUILUN LIFE SCIENCE & TECHNOLOGY CO., LTD., priority 2016, dated 2020).
